From patent US11702418B2, “SOS1 inhibitors” (priority 2019, dated 2023)
Where a name gives a salt, the structure may show the parent alone. Read-outs that look alike come from different tables or passages of the source.

Legend:
[1] = test system: pERK in MKN1 cells; test: cells; assay type: cell-based; settings: Homo sapiens
Description: The cells were incubated for approximately 0.5-1 hour with the compounds solubilized in DMSO at 37° C. Cells were immediately fixed by adding 50 μL of 4% formaldehyde to all wells in a fume hood and the plates were incubated for 20 minutes at room temperature. The formaldehyde was discarded from the plates and 150 μL of ice-cold methanol was added to permeabilize the cells for 10 minutes at −20° C. The methanol was discarded from each of the plates and any liquid remaining in the plate by tapping the plate against paper towels. […] The plates were incubated overnight at 4° C. on a shaker.
On Assay day 2, the primary antibody solution was removed. […] The secondary antibody solution as removed and each plate was washed with PBST 3× times. Any liquid remaining was discarded and the plate was imaged using the Licor Odyssey machine according to the manufacturer's instruction, using a set focus length at 3 mm and both 800 nm and 700 nm filters. The GAPDH normalized scan values for each well were divided by the average of vehicle wells to get the % of pERK inhibition. The IC50 values were then calculated with the Graph pad Prism software.

[2] = biological target: recombinant human SOS1 polypeptide (amino acids 560-1049) (Homo sapiens (Human), UniProt Q07889); test: biochemical; assay type: binding; settings: read-out: Ki, Inhibition of Labeled Tracer Binding to SOS1
Chain of recombinant human SOS1 polypeptide (amino acids 560-1049) (Q07889 560-1049): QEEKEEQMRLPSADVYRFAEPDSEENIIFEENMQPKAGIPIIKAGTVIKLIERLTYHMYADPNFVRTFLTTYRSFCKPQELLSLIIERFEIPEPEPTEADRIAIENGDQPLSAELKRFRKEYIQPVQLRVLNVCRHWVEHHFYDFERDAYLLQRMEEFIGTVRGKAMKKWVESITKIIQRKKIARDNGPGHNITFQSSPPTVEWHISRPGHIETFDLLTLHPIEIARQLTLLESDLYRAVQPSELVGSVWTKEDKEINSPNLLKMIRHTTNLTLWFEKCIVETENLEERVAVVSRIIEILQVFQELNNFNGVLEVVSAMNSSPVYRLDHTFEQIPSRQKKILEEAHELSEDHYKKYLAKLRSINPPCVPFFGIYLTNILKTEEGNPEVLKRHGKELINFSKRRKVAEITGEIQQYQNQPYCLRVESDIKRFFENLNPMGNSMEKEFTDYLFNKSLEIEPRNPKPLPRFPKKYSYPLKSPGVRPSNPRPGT
Description: The ability of a compound of Formula (I) to bind to SOS1 was measured using a HTRF displacement assay. […] After a 1-hour incubation at room temperature, the HTRF signal was measured using Clairostar plate reader (BMG Labtech) according to the manufacturer's instructions. Excitation filter EX-TR was used, and emission 1 was detected at 650-610 nm and emission 2 detected at 620-610 nm. The HTRF ratio was calculated using the formula: [emission 1/emission 2]*10000.
Background signals were calculated from well with a 10 μM inhibitor, known to inhibit 100% at that concentration. The background subtracted signals were converted to % binding relative to DMSO controls. Data were analyzed using XLFIT software (IDBS) using a Morrison equation for competitive binding and Ki's were generated compound of Formula (I).

[3] = MKN-1, pERK inhibition, In-Cell Western, MKN1 or H358 cells (Table 24 does not say which), 0.5-1 hour incubation, read-out: IC50
[4] = HTRF displacement, Cy5 labelled tracer, Morrison equation for competitive binding

| SMILES | IC50 [1, 3] [nM] | Ki [2, 4] [nM] | IC50 ([1]; MKN-1) [nM] | Ki [2] [nM] |
| --- | --- | --- | --- | --- |
| Cc1c([C@@H](C)Nc2nncc3ccc(N4CCC5C4CCCN5C)cc23)cccc1C(F)(F)F (stereo partly drawn) [Example 1-38, N-((R)-1-(2-methyl-3-(trifluoromethyl)phenyl)ethyl)-7-(4-methyloctahydro-1H-pyrrolo[3,2-b]pyridin-1-yl)phthalazin-1-amine] | 136 | 0.5 | – | – |
| Cc1cn2c(n1)CN(c1ccc3cnnc(N[C@H](C)c4cccc(C(F)(F)F)c4C)c3c1)CC2 [Example 1-40, (R)-N-(1-(2-methyl-3-(trifluoromethyl)phenyl)ethyl)-7-(2-methyl-5,6-dihydroimidazo[1,2-a]pyrazin-7(8H)-yl)phthalazin-1-amine] | 171 | 0.27 | – | – |
| Cc1c([C@@H](C)Nc2nncc3ccc(N4CCN(C)C(CF)C4)cc23)cccc1C(F)(F)F (stereo partly drawn) [Example 1-43, 7-(3-(fluoromethyl)-4-methylpiperazin-1-yl)-N-((R)-1-(2-methyl-3-(trifluoromethyl)phenyl)ethyl)phthalazin-1-amine] | 216 | 1.36 | – | – |
| Cc1cn2c(n1)C(C)N(c1ccc3cnnc(N[C@H](C)c4cccc(C(F)(F)F)c4C)c3c1)CC2 (stereo partly drawn) [Example 1-44, 7-(2,8-dimethyl-5,6-dihydroimidazo[1,2-a]pyrazin-7(8H)-yl)-N-((R)-1-(2-methyl-3-(trifluoromethyl)phenyl)ethyl)phthalazin-1-amine] | 235 | 0.42 | – | – |
| Cc1c([C@@H](C)Nc2nncc3ccc(N4CCn5cc(C(F)(F)F)nc5C4C)cc23)cccc1C(F)(F)F (stereo partly drawn) [Example 1-47, 7-(8-methyl-2-(trifluoromethyl)-5,6-dihydroimidazo[1,2-a]pyrazin-7(8H)-yl)-N-((R)-1-(2-methyl-3-(trifluoromethyl)phenyl)ethyl)phthalazin-1-amine] | 349 | 2.08 | – | – |
| Cc1c([C@@H](C)Nc2nncc3ccc(N4CCn5cncc5C4)cc23)cccc1C(F)(F)F [Example 1-48, (R)-7-(5,6-dihydroimidazo[1,5-a]pyrazin-7(8H)-yl)-N-(1-(2-methyl-3-(trifluoromethyl)phenyl)ethyl)phthalazin-1-amine] | 364 | 0.56 | – | – |
| Cc1c([C@@H](C)Nc2nncc3ccc(OC4CCN(C)C4(C)C)cc23)cccc1C(F)(F)F (stereo partly drawn) [Example 2-5, N-((R)-1-(2-methyl-3-(trifluoromethyl)phenyl)ethyl)-7-((1,2,2-trimethylpyrrolidin-3-yl)oxy)phthalazin-1-amine] | 82 | 1.78 | – | – |
| Cc1c([C@@H](C)Nc2nncc3ccc(OC4CCN(C)CC4)cc23)cccc1C(F)(F)F [Example 2-6, (R)-N-(1-(2-methyl-3-(trifluoromethyl)phenyl)ethyl)-7-((1-methylpiperidin-4-yl)oxy)phthalazin-1-amine] | 83 | 2.1 | – | – |
| Cc1c([C@@H](C)Nc2nncc3ccc(O[C@H]4C[C@H](N(C)C)C4)cc23)cccc1C(F)(F)F [Example 2-8, 7-((trans)-3-(dimethylamino)cyclobutoxy)-N-((R)-1-(2-methyl-3-(trifluoromethyl)phenyl)ethyl)phthalazin-1-amine] | 148 | 2.99 | – | – |
| Cc1c([C@@H](C)Nc2nncc3ccc(O[C@H]4CC[C@H](N(C)C)C4)cc23)cccc1C(F)(F)F [Example 2-11, 7-(((trans)-3-(dimethylamino)cyclopentyl)oxy)-N-((R)-1-(2-methyl-3-(trifluoromethyl)phenyl)ethyl)phthalazin-1-amine] | 243 | 2.83 | – | – |
| Cc1c([C@@H](C)Nc2nncc3ccc(OC4CCN5CCCC5C4)cc23)cccc1C(F)(F)F (stereo partly drawn) [Example 2-12, N-((R)-1-(2-methyl-3-(trifluoromethyl)phenyl)ethyl)-7-((octahydroindolizin-7-yl)oxy)phthalazin-1-amine] | 304 | 5.75 | – | – |
| COc1cc2c(N[C@H](C)c3ccc(-c4ccccc4CN(C)C)s3)nnc(C(F)(F)F)c2cc1OC [Example 5-4, (R)—N-(1-(5-(2-((dimethylamino)methyl)phenyl)thiophen-2-yl)ethyl)-6,7-dimethoxy-4-(trifluoromethyl)phthalazin-1-amine] | 1620 | 47.9 | – | – |
| Cc1c([C@@H](C)Nc2nnc(C)c3ccc(N4CCN(C)CC4)cc23)cccc1C(F)(F)F [Example 6-1, (R)-4-methyl-N-(1-(2-methyl-3-(trifluoromethyl)phenyl)ethyl)-7-(4-methylpiperazin-1-yl)phthalazin-1-amine] | 79 | 0.11 | – | – |
| CNCc1ccccc1-c1ccc([C@@H](C)Nc2nnc(C)c3cnc(N4CCOCC4)cc23)s1 [Example 6-2, (R)-4-methyl-N-(1-(5-(2-((methylamino)methyl)phenyl)thiophen-2-yl)ethyl)-7-morpholinopyrido[3,4-d]pyridazin-1-amine] | 100 | 1.35 | – | – |
| CNCc1c(F)cccc1-c1ccc([C@@H](C)Nc2nnc(C)c3cnc(N4CCOCC4)cc23)s1 [Example 6-13, (R)-N-(1-(5-(3-fluoro-2-((methylamino)methyl)phenyl)thiophen-2-yl)ethyl)-4-methyl-7-morpholinopyrido[3,4-d]pyridazin-1-amine] | 20 | 0.29 | – | – |
| Cc1nnc(N[C@H](C)c2cc(F)cc(C(F)(F)F)c2)c2cc(N3CCOCC3)ncc12 [Example 6-14, (R)-N-(1-(3-fluoro-5-(trifluoromethyl)phenyl)ethyl)-4-methyl-7-morpholinopyrido[3,4-d]pyridazin-1-amine] | 320 | 5.51 | – | – |
| Cc1nnc(N[C@H](C)c2cccc(C#N)c2)c2cc(N3CCOCC3)ccc12 [Example 6-15, (R)-3-(1-((4-methyl-7-morpholinophthalazin-1-yl)amino)ethyl)benzonitrile] | 172 | 12.6 | – | – |
| Cc1nnc(N[C@H](C)c2cc(F)cc(C#N)c2)c2cc(N3CCOCC3)ncc12 [Example 6-17, (R)-3-fluoro-5-(1-((4-methyl-7-morpholinopyrido[3,4-d]pyridazin-1-yl)amino)ethyl)benzonitrile] | 412 | 56.5 | – | – |
| Cc1c(Cl)cccc1[C@@H](C)Nc1nnc(C)c2cnc(N3CCOCC3)cc12 [Example 6-18, (R)-N-(1-(3-chloro-2-methylphenyl)ethyl)-4-methyl-7-morpholinopyrido[3,4-d]pyridazin-1-amine] | 3700 | 317 | – | – |
| Cc1c([C@@H](C)Nc2nnc(C)c3ccc(OC4CCNCC4)cc23)cccc1C(F)(F)F [Example 7-2, (R)-4-methyl-N-(1-(2-methyl-3-(trifluoromethyl)phenyl)ethyl)-7-(piperidin-4-yloxy)phthalazin-1-amine] | 73 | 0.33 | – | – |
| Cc1c([C@@H](C)Nc2nnc(C)c3ccc(O[C@H]4CCN(C)C4)cc23)cccc1C(F)(F)F [Example 7-5, 4-methyl-N-((R)-1-(2-methyl-3-(trifluoromethyl)phenyl)ethyl)-7-(((S)-1-methylpyrrolidin-3-yl)oxy)phthalazin-1-amine] | 110 | 0.82 | – | – |
| Cc1c([C@@H](C)Nc2nnc(C)c3ccc(OC[C@@H]4CCCN4)cc23)cccc1C(F)(F)F [Example 7-6, 4-methyl-N-((R)-1-(2-methyl-3-(trifluoromethyl)phenyl)ethyl)-7-(((S)-pyrrolidin-2-yl)methoxy)phthalazin-1-amine] | 110 | 1.41 | – | – |
| Cc1c([C@@H](C)Nc2nnc(C)c3ccc(OC[C@H]4CCCN4)cc23)cccc1C(F)(F)F [Example 7-7, 4-methyl-N-((R)-1-(2-methyl-3-(trifluoromethyl)phenyl)ethyl)-7-(((R)-pyrrolidin-2-yl)methoxy)phthalazin-1-amine hydrochloride salt] | – | – | 115 | 0.92 |
| CNCc1ccccc1-c1ccc([C@@H](C)Nc2nnc(C)c3ccc(C)cc23)s1 [Example 8-1, (R)-4,7-di methyl-N-(1-(5-(2-((methylamino)methyl)phenyl)thiophen-2-yl)ethyl)phthalazin-1-amine] | 164 | 1.38 | – | – |
| CNCc1ccccc1-c1ccc([C@@H](C)Nc2nnc(C(F)(F)F)c3ccc(N4CCOCC4)cc23)s1 [Example 10-2, (R)—N-(1-(5-(2-((methylamino)methyl)phenyl)thiophen-2-yl)ethyl)-7-morpholino-4-(trifluoromethyl)phthalazin-1-amine] | 1370 | 14.9 | – | – |
| Cc1c([C@@H](C)Nc2nnc(C)c3ccc(C4CCNC(=O)C4)cc23)cccc1C(F)(F)F (stereo partly drawn) [Example 10-3, 4-(1-methyl-4-(((R)-1-(2-methyl-3-(trifluoromethyl)phenyl)ethyl)amino)phthalazin-6-yl)piperidin-2-one] | 85 | 0.71 | – | – |
| Cc1c([C@@H](C)Nc2nnc(C)c3ccc(N4CCNCC(F)(F)C4)cc23)cccc1C(F)(F)F [Example 10-5, (R)-7-(6,6-difluoro-1,4-diazepan-1-yl)-4-methyl-N-(1-(2-methyl-3-(trifluoromethyl)phenyl)ethyl)phthalazin-1-amine] | 108 | < 0.01 | – | – |
| Cc1c([C@@H](C)Nc2nnc(C)c3ccc(N4CCN5C(=O)CC[C@@H]5C4)cc23)cccc1C(F)(F)F [Example 10-12, (R)-2-(1-methyl-4-(((R)-1-(2-methyl-3-(trifluoromethyl)phenyl)ethyl)amino)phthalazin-6-yl)hexahydropyrrolo[1,2-a]pyrazin-6(2H)-one] | 29 | 0.4 | – | – |
| Cc1c([C@@H](C)Nc2nnc(C)c3ccc(N4CCN5C(=O)CC[C@H]5C4)cc23)cccc1C(F)(F)F [Example 10-13, (S)-2-(1-methyl-4-(((R)-1-(2-methyl-3-(trifluoromethyl)phenyl)ethyl)amino)phthalazin-6-yl)hexahydropyrrolo[1,2-a]pyrazin-6(2H)-one] | 39 | 0.49 | – | – |
